From patent US20230121313A1 (priority 2019, published 2023)

Tested on: patients with treatment-resistant depression (TRD)
Test: Adverse events, phase 2 dose-response study in TRD
Type: in vivo, human
Details: double-blind
Procedure: Adverse events were monitored throughout the study. Other safety assessments (i.e., laboratory tests, vital signs, physical examination) were performed at pre-specified time points. Vital signs, the Clinician Administered Dissociative States Scale (CADSS; Bremner, “Measurement of dissociative states with the clinician-administered dissociative states scale (CADSS)”, J. Traumatic Stress, 1998, 11(1):125-136), and the 4-item positive symptom subscale from the Brief Psychiatric Rating Scale (BPRS; Overall, “The Brief Psychiatric Rating Scale. Psychological Reports”, 1962, 10:799-812) were assessed pre-dose, at 40 minutes, and 2 hours post-dose.
Safety data were analyzed in Period 1, Period 2, double-blind, and open-label data sets, for all subjects receiving at least 1 dose of study medication.

CN[C@]1(c2ccccc2Cl)CCCCC1=O [esketamine, (S)-2-(2-chlorophenyl)-2-(methylamino)cyclohexanone]
6: Headache, number of participants (esketamine 28 mg, N = 19)
3: Dysgeusia, number of participants (esketamine 56 mg, N = 20) | Headache, number of participants (esketamine 56 mg, N = 20)
(47) %: Dizziness, % of participants (esketamine 84 mg, N = 17)
(24) %: Dissociation, % of participants (esketamine 84 mg, N = 17) | Dissociative disorder, % of participants (esketamine 84 mg, N = 17)
1: Hypoesthesia oral, number of participants (esketamine 28 mg, N = 19) | Sedation, number of participants (esketamine 28 mg, N = 19) | Throat irritation, number of participants (esketamine 28 mg, N = 19) | Dissociative disorder, number of participants (esketamine 56 mg, N = 20) | Feeling abnormal, number of participants (esketamine 56 mg, N = 20) | Oropharyngeal pain, number of participants (esketamine 56 mg, N = 20) | Vertigo, number of participants (esketamine 56 mg, N = 20)
(11) %: Dissociative disorder, % of participants (esketamine 28 mg, N = 19) | Dysgeusia, % of participants (esketamine 28 mg, N = 19) | Feeling abnormal, % of participants (esketamine 28 mg, N = 19) | Hypersomnia, % of participants (esketamine 28 mg, N = 19) | Nausea, % of participants (esketamine 28 mg, N = 19) | Vertigo, % of participants (esketamine 28 mg, N = 19)
(32) %: Headache, % of participants (esketamine 28 mg, N = 19)
0: Dissociation, number of participants (esketamine 28 mg, N = 19) | Hypertension, number of participants (esketamine 28 mg, N = 19) | Insomnia, number of participants (esketamine 28 mg, N = 19) | Nasal discomfort, number of participants (esketamine 28 mg, N = 19) | Oropharyngeal pain, number of participants (esketamine 28 mg, N = 19) | Polyuria, number of participants (esketamine 28 mg, N = 19) | Tunnel vision, number of participants (esketamine 28 mg, N = 19) | Vision blurred, number of participants (esketamine 28 mg, N = 19) | Hypersomnia, number of participants (esketamine 56 mg, N = 20) | Throat irritation, number of participants (esketamine 56 mg, N = 20) | Tunnel vision, number of participants (esketamine 56 mg, N = 20) | Vision blurred, number of participants (esketamine 56 mg, N = 20)
(21) %: Dizziness, % of participants (esketamine 28 mg, N = 19)
4: Dizziness, number of participants (esketamine 28 mg, N = 19) | Hypoesthesia oral, number of participants (esketamine 56 mg, N = 20) | Nausea, number of participants (esketamine 56 mg, N = 20) | Dissociation, number of participants (esketamine 84 mg, N = 17) | Dissociative disorder, number of participants (esketamine 84 mg, N = 17)
8: Dizziness, number of participants (esketamine 56 mg, N = 20) | Dizziness, number of participants (esketamine 84 mg, N = 17)
5: Dysgeusia, number of participants (esketamine 84 mg, N = 17)
(20) %: Hypoesthesia oral, % of participants (esketamine 56 mg, N = 20) | Nausea, % of participants (esketamine 56 mg, N = 20)
2: Dissociative disorder, number of participants (esketamine 28 mg, N = 19) | Dysgeusia, number of participants (esketamine 28 mg, N = 19) | Feeling abnormal, number of participants (esketamine 28 mg, N = 19) | Hypersomnia, number of participants (esketamine 28 mg, N = 19) | Nausea, number of participants (esketamine 28 mg, N = 19) | Vertigo, number of participants (esketamine 28 mg, N = 19) | Hypertension, number of participants (esketamine 56 mg, N = 20) | Insomnia, number of participants (esketamine 56 mg, N = 20) | Nasal discomfort, number of participants (esketamine 56 mg, N = 20) | Polyuria, number of participants (esketamine 56 mg, N = 20) | Sedation, number of participants (esketamine 56 mg, N = 20)
(29) %: Dysgeusia, % of participants (esketamine 84 mg, N = 17)
7: Dissociation, number of participants (esketamine 56 mg, N = 20)
16: Total with events, number of participants (esketamine 56 mg, N = 20)
(40) %: Dizziness, % of participants (esketamine 56 mg, N = 20)
(58) %: Total with events, % of participants (esketamine 28 mg, N = 19)
(5) %: Hypoesthesia oral, % of participants (esketamine 28 mg, N = 19) | Sedation, % of participants (esketamine 28 mg, N = 19) | Throat irritation, % of participants (esketamine 28 mg, N = 19) | Dissociative disorder, % of participants (esketamine 56 mg, N = 20) | Feeling abnormal, % of participants (esketamine 56 mg, N = 20) | Oropharyngeal pain, % of participants (esketamine 56 mg, N = 20) | Vertigo, % of participants (esketamine 56 mg, N = 20)
(10) %: Hypertension, % of participants (esketamine 56 mg, N = 20) | Insomnia, % of participants (esketamine 56 mg, N = 20) | Nasal discomfort, % of participants (esketamine 56 mg, N = 20) | Polyuria, % of participants (esketamine 56 mg, N = 20) | Sedation, % of participants (esketamine 56 mg, N = 20)
(80) %: Total with events, % of participants (esketamine 56 mg, N = 20)
(15) %: Dysgeusia, % of participants (esketamine 56 mg, N = 20) | Headache, % of participants (esketamine 56 mg, N = 20)
(35) %: Dissociation, % of participants (esketamine 56 mg, N = 20)
11: Total with events, number of participants (esketamine 28 mg, N = 19)
